According to US20050009124A1, “Assays for detection of phosphoinositide kinase and phosphatase activity” (Echelon Biosciences Incorporated, priority 2001, published 2005):
Where two headings read alike, the source gives them in different places. One block for each molecule: values may come before it.

Key:
Type in all cases: binding
[1] = target: T1, GST-Grp1 (Homo sapiens, UniProt O43739); assay: Competition fluorogenic assay with GST-Grp1/GS-QSY 7 complex; conditions: probe 10 nM, GST-Grp1 0.5 μM, GS-QSY 7 2.5 μM, increasing competitor
T1 sequence (O43739 1-400): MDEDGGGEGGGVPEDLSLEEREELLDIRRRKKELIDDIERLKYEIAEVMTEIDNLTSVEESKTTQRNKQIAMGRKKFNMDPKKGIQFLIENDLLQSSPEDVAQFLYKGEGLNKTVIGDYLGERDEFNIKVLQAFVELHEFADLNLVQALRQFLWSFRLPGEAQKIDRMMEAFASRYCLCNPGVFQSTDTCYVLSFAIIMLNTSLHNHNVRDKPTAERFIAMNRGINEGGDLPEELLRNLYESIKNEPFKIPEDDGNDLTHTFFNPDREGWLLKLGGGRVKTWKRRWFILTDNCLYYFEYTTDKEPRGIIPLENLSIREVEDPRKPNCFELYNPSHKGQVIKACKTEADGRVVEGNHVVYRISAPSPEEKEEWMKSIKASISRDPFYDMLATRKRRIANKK
Experimental: The fluorogenic assays using a glutathione quencher conjugate (e.g. GS-QSY 7) were set up in a black 384-well plate. A combination of the assay components described in detail below, including GST-Grp1, BODIPY®-FL-PI(3,4,5)P3, GS-QSY7, and phosphoinositide competitors, were incubated in the dark for 1 hour. The total reaction volume was either 25 or 50 μl in PBS (pH 7.4). The plate was then transferred to an Alpha Fusion plate reader and read with a 485/520 nm filter.
This fluorogenic assay was also specific.

[2] = target: GST-TAPP1 (Homo sapiens, UniProt Q9HB21); assay: Competitive FP assay, displacement of BODIPY-TMR-PI(3,4)P2 tracer from GST-TAPP1
Experimental: (§1) In order to use these reagents in a competitive FP assay, unlabeled phosphoinositide products of an enzymatic reaction must be able to successfully compete with the labeled tracer for interaction with the binding proteins. In addition, the level of cross-reactivity of binding proteins with the phosphoinositides used as enzyme substrates should be minimal. To examine the suitability of these phosphoinositide binding proteins for this application, competition assays were performed using optimal amounts of lipid binding proteins and fluorescent tracers, mixed with increasing amounts of diC8-phosphoinositide competitors.
Similar competition assays were performed to examine the selectivity and sensitivity of PI(3,4)P2 detection by GST-TAPP1 (FIG. 10). In these assays, the concentrations of GST-TAPP1 and the fluorescently labeled phosphoinositide were held constant as the concentration of unlabeled lipid competitor was increased. […] In implementing these assays, the initial amount of PI(3,4,5)P3 substrate should be kept low enough to minimize competition.

[3] = target: T2, GST-GRP1-PH (Homo sapiens, UniProt O43739); assay: Competitive FP assay, displacement of fluorescent tracer from GST-GRP1-PH; conditions: displacement of BODIPY®-TMR-I(1,3,4,5)P4 tracer
T2 construct: The PH domain of GRP1 (general receptor for phosphoinositides) was used as a detector for PI(3,4,5)P3
T2 sequence (O43739 264-381 limits assumed): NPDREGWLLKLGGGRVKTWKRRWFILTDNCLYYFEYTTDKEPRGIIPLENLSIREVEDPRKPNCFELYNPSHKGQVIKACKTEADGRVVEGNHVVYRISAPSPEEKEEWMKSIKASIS
Experimental: as §1
The sensitivity of this approach for detecting conversion of PI(4,5)P2 to PI(3,4,5)P3 was evaluated using GST-GRP1-PH protein and FAM and BODIPY®-TMR labeled tracers. Competition assays in which both diC8-PI(3,4,5)P3 and diC8-PI(4,5)P2 were added at increasing concentrations were performed.

[4] = target: T3, SMQ-Grp1 (Homo sapiens, UniProt O43739); assay: Competitive dequenching fluorogenic assay with SMQ-Grp1
T3 construct: small molecular quencher (Dabcyl, QSY 7 or QSY 9); made in house
T3 sequence (O43739 1-400): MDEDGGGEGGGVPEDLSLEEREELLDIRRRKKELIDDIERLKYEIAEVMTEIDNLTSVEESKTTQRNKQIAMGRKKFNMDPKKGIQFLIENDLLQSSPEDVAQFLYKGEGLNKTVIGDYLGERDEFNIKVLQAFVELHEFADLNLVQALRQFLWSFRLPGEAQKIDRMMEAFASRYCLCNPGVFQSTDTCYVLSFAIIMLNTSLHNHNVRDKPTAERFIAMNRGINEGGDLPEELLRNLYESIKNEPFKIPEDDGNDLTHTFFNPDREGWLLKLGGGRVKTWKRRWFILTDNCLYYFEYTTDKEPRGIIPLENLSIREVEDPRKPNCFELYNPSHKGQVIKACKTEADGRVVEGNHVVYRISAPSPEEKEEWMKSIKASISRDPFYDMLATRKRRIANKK
Experimental: The fluorogenic assays were set up in a black 384-well plate. The combination of 100 nM, 10 nM and 1 nM of SMQ-Grp1 conjugate was incubated with 100 nM, 50 nM and 25 nM BODIPY®-FL-labeled PI(3,4,5)P3. The total assay volume was […] in a PBS buffer at a pH of 7.5. The assay mixture was incubated in the dark for one hour at 25° C. The plate was then transferred to an Alpha Fusion plate reader and read with a 485/520 nm filter. […] For example, if BODIPY®-FL-PI(3,4,5)P3 is fixed at 25 nM, increasing the amount of Dabcyl-Grp1 conjugate (from 1 nM to 100 nM) caused decreasing amounts of fluorescence (FIG. 24). Similar fluorescence quenching profiles were shown for QSY 7-Grp1 and QSY 9-Grp1.
The quenching effects of BODIPY®-FL-PI(3,4,5)P3 by SMQ-Grp1 were specific. diC8 PI(3,4,5)P3 as a competitor antagonized the fluorescence quenching effect of BODIPY®-FL-PI(3,4,5)P3 by SMQ-Grp1 in a dose-response manner. diC8 PI(3,4,5)P3 was used at varying concentrations to compete with BODIPY®-FL-PI(3,4,5)P3 for binding to the SMQ-Grp1 conjugate. […] In each bar graph in FIG. 25, from the right to the left, the bars show the fluorescence reading of PBS as the background, the diC8 PI(3,4,5)P3 only, the SMQ-Grp1 conjugate only, BODIPY®-FL-PI(3,4,5)P3 only, Grp1-SMQ plus BODIPY®-FL-PI(3,4,5)P3, Grp1-SMQ plus BODIPY®-FL-PI(3,4,5)P3 with 10 pmol of diC8 PI(3,4,5)P3 as the competitor, Grp1-SMQ plus BODIPY®-FL-PI(3,4,5)P3 with 100 pmol of diC8 PI(3,4,5)P3 as the competitor, Grp1-SMQ plus BODIPY®-FL-PI(3,4,5)P3 with 1000 pmol of diC8 PI(3,4,5)P3 as the competitor, and Grp1-SMQ plus BODIPY®-FL-PI(3,4,5)P3 with 10000 pmol of diC8 PI(3,4,5)P3 as competitor. […]
Fluorogenic assays were also used to compare competition of diC8 PI(3,4,5)P3 to PI(4,5)P2 and PI(3)P. With increasing amounts of PI(3,4,5)P3 the signal begins to increase, indicating competition, whereas as PI(4,5)P2 and PI(3)P show little change, indicating less competition. […] The production (or presence) of PI(3,4,5)P3 in this assay system corresponds to the elevation of the fluorescence signal.

[5] = Fluorogenic assay, quenching of BODIPY-FL-PI(3,4,5)P3 by SMQ-Grp1 conjugates
Description: The chemical modification of LRPs, e.g. Grp1, a PI(3,4,5)P3 binder, with small molecular quenchers (SMQ) has been thoroughly studied in this invention. Three SMQs, Dabcyl-SE (4-((4-(dimethylamino)phenyl)azo)benzoic acid, succinimidyl ester), QSY 7-SE (9-[2-[[4-[[(2,5-dioxo-1-pyrrolidinyl)oxy]carbonyl]-1-piperidinyl]sulfonyl]phenyl]-3,6-bis(methylphenylamino)-, chloride) and QSY 9-SE (QSY® 9 carboxylic acid, succinimidyl ester, C43H39ClN4O13S3), with diverse structures, spectral properties, hydrophobicity and solubility properties, were coupled to Grp1. Specifically, SMQ-modified Grp1 still retains its binding activity and quenches the fluorescence of BODIPY®-FL labeled PI(3,4,5)P3. With a fixed amount of BODIPY®-FL-PI(3,4,5)P3 in solution, increasing the amount of SMQ-Grp1 caused decreasing fluorescence of the PI(3,4,5)P3 fluorescent probes. At a ratio of 2:1 (QSY 7-Grp1:BODIPY®-FL-PI(3,4,5)P3), QSY 7-Grp1 quenched up to 70% of the fluorescence intensity of BODIPY®-FL PI(3,4,5)P3.
The fluorogenic assays were set up in a black 384-well plate. […] The plate was then transferred to an Alpha Fusion plate reader and read with a 485/520 nm filter. […] For example, if BODIPY®-FL-PI(3,4,5)P3 is fixed at 25 nM, increasing the amount of Dabcyl-Grp1 conjugate (from 1 nM to 100 nM) caused decreasing amounts of fluorescence (FIG. 24). […]

Chain of GST-TAPP1 (Q9HB21 whole entry): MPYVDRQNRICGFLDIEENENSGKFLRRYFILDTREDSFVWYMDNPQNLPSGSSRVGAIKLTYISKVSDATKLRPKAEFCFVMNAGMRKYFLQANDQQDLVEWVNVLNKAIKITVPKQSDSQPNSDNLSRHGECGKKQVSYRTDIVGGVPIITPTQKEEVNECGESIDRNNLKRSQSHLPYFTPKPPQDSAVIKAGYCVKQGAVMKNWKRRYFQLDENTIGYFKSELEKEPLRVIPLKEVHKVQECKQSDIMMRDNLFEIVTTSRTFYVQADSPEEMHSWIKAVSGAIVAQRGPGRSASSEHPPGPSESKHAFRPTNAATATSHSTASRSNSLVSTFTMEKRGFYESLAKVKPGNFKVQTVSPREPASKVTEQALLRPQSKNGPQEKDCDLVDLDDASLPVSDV

Molecule: CCCCCCCCCCCCCCCC(=O)OC[C@H](COP(=O)(O)O[C@@H]1[C@H](O)[C@H](O)[C@@H](OP(=O)(O)O)[C@H](OP(=O)(O)O)[C@H]1O)OC(=O)CCCCCCCCCCCCCCC [diC16 PI(4,5)P2]
- effect on fluorescence of BODIPY®-FL PI(3,4,5)P3 (competition) [1]: only marginally increased the fluorescence at higher concentrations

B1: QSY 7-Grp1: Grp1, a PI(3,4,5)P3 binder, coupled to small molecular quencher QSY 7-SE (conjugate, UniProt O43739 1-400, looked up)
Cytohesin-3: MDEDGGGEGGGVPEDLSLEEREELLDIRRRKKELIDDIERLKYEIAEVMTEIDNLTSVEESKTTQRNKQIAMGRKKFNMDPKKGIQFLIENDLLQSSPEDVAQFLYKGEGLNKTVIGDYLGERDEFNIKVLQAFVELHEFADLNLVQALRQFLWSFRLPGEAQKIDRMMEAFASRYCLCNPGVFQSTDTCYVLSFAIIMLNTSLHNHNVRDKPTAERFIAMNRGINEGGDLPEELLRNLYESIKNEPFKIPEDDGNDLTHTFFNPDREGWLLKLGGGRVKTWKRRWFILTDNCLYYFEYTTDKEPRGIIPLENLSIREVEDPRKPNCFELYNPSHKGQVIKACKTEADGRVVEGNHVVYRISAPSPEEKEEWMKSIKASISRDPFYDMLATRKRRIANKK
modifications: QSY 7 quencher
- quenching of fluorescence intensity of BODIPY®-FL PI(3,4,5)P3 ([5]; ratio 2:1 (QSY 7-Grp1:BODIPY®-FL-PI(3,4,5)P3)): up to 70%

B2: Dabcyl-Grp1 conjugate: Grp1, a PI(3,4,5)P3 binder, coupled to small molecular quencher Dabcyl-SE (conjugate, UniProt O43739 1-400, looked up)
Cytohesin-3: MDEDGGGEGGGVPEDLSLEEREELLDIRRRKKELIDDIERLKYEIAEVMTEIDNLTSVEESKTTQRNKQIAMGRKKFNMDPKKGIQFLIENDLLQSSPEDVAQFLYKGEGLNKTVIGDYLGERDEFNIKVLQAFVELHEFADLNLVQALRQFLWSFRLPGEAQKIDRMMEAFASRYCLCNPGVFQSTDTCYVLSFAIIMLNTSLHNHNVRDKPTAERFIAMNRGINEGGDLPEELLRNLYESIKNEPFKIPEDDGNDLTHTFFNPDREGWLLKLGGGRVKTWKRRWFILTDNCLYYFEYTTDKEPRGIIPLENLSIREVEDPRKPNCFELYNPSHKGQVIKACKTEADGRVVEGNHVVYRISAPSPEEKEEWMKSIKASISRDPFYDMLATRKRRIANKK
modifications: Dabcyl quencher
- quenching of fluorescence of BODIPY®-FL-PI(3,4,5)P3 ([5]; SMQ-Grp1 100 nM, BODIPY®-FL-PI(3,4,5)P3 50 nM): ~70%

The next lines start with the values.

- effect on fluorescence of BODIPY®-FL PI(3,4,5)P3 (competition) [1]: restored the fluorescence
Molecule: CCCCCCCCCCCCCCCC(=O)OC[C@H](COP(=O)(O)OC1[C@H](O)[C@H](OP(=O)(O)O)C(OP(=O)(O)O)[C@H](OP(=O)(O)O)[C@H]1O)OC(=O)CCCCCCCCCCCCCCC (stereo partly drawn) [DiC16 PI(3,4,5)P3]

- IC50 ([2]; read-out: IC50): 165 nM
Molecule: CCCCCCCC(=O)OC[C@H](COP(=O)(O)O[C@H]1[C@H](O)[C@@H](O)[C@H](OP(=O)(O)O)[C@@H](OP(=O)(O)O)[C@H]1O)OC(=O)CCCCCCC [diC8-PI(3,4)P2]

- IC50 [3]: 218 nM
- IC50 ([2]; predicted, read-out: predicted IC50): 1510 nM
- fluorescence restored, of the original ([4]; 10000 pmol competitor, Dabcyl-Grp1 100 nM, probe 50 nM): up to 70%
Molecule: CCCCCCCC(=O)OC[C@H](COP(=O)(O)OC1[C@H](O)[C@H](OP(=O)(O)O)C(OP(=O)(O)O)[C@H](OP(=O)(O)O)[C@H]1O)OC(=O)CCCCCCC (stereo partly drawn) [diC8-PI(3,4,5)P3]

- change of fluorescence signal (competition) ([4]; increasing amounts of competitor, compared with diC8 PI(3,4,5)P3): little change
Molecule: PI(3)P
